According to US11851426B2, “Bicyclic amines as CDK2 inhibitors” (Incyte Corporation, priority 2019, dated 2023):

The compounds below were run against CDK2/Cyclin E1 (Homo sapiens (Human), UniProt P24941) (assay: CDK2/Cyclin E1 HTRF enzyme activity assay). Settings: 1 mM ATP; CDK2/Cyclin E1 0.25 nM; 60 minutes at room temperature.
Type: biochemical
How it was run: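 Full-length GST-CDK2 co-expressed with FLAG-Cyclin E1 (baculovirus), 0.25 nM, reacted with 50 nM ULight-4E-BP1 (Thr37/46) peptide at 50 μM or 1 mM ATP in HEPES pH 7.5 buffer, 60 min, room temperature. EDTA plus Eu-anti-phospho-4E-BP1 antibody stopped the reaction; HTRF read after 1 h; IC50 from three- or four-parameter fits.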

SMILES	IC50
CCSc1c(-c2cn[nH]c2)ncc2nc(NC3CCN(S(C)(=O)=O)CC3)nn12 [Example 123, 5-(Ethylthio)-N-(1-(methylsulfonyl)piperidin-4-yl)-6-(1H-pyrazol-4-yl)-[1,2,4]triazolo[1,5-a]pyrazin-2-amine]	≤ 20 nM
C[C@@H]1CN(S(C)(=O)=O)CC[C@@H]1Nc1nc2cnc(-c3cn[nH]c3)c(OCC3(C(F)(F)F)CCC3)n2n1 [Example 114, N-((3R,4S)-3-Methyl-1-(methylsulfonyl)piperidin-4-yl)-6-(1H-pyrazol-4-yl)-5-((1-(trifluoromethyl)cyclobutyl)methoxy)-[1,2,4]triazolo[1,5-a]pyrazin-2-amine]	≤ 20 nM
CC(C)Oc1c(-c2cn[nH]c2)ncn2nc(N[C@H]3CCN(S(=O)(=O)CCCN(C)C(C)C)C[C@H]3C)nc12 [Example 57, 8-Isopropoxy-N-((3R,4S)-1-((3-(isopropyl(methyl)amino)propyl)sulfonyl)-3-methylpiperidin-4-yl)-7-(1H-pyrazol-4-yl)-[1,2,4]triazolo[1,5-c]pyrimidin-2-amine]	≤ 20 nM
CS(=O)(=O)N1CCC(Nc2nc3cnc(-c4cn[nH]c4)c(N4CCC[C@@H](F)C4)n3n2)CC1 [Example 128, (R)-5-(3-Fluoropiperidin-1-yl)-N-(1-(methylsulfonyl)piperidin-4-yl)-6-(1H-pyrazol-4-yl)-[1,2,4]triazolo[1,5-a]pyrazin-2-amine]	≤ 20 nM
CS(=O)(=O)N1CCC(Nc2nc3cnc(-c4cn[nH]c4)c(OC4CCOC(C(F)(F)F)C4)n3n2)CC1 (centres unmarked) [Example 119, N-(1-(Methylsulfonyl)piperidin-4-yl)-6-(1H-pyrazol-4-yl)-5-((2-(trifluoromethyl)tetrahydro-2H-pyran-4-yl)oxy)-[1,2,4]triazolo[1,5-a]pyrazin-2-amine]	≤ 20 nM
COC(=O)N1CCC(Oc2c(-c3cn[nH]c3)ccn3nc(NC4CCN(S(C)(=O)=O)CC4)nc23)CC1 [Example 18, Methyl 4-((2-((1-(methylsulfonyl)piperidin-4-yl)amino)-7-(1H-pyrazol-4-yl)-[1,2,4]triazolo[1,5-a]pyridin-8-yl)oxy)piperidine-1-carboxylate]	≤ 20 nM
CCOc1c(-c2cn[nH]c2)ccn2nc(N[C@H]3CCN(S(=O)(=O)c4cnn(C)c4)C[C@H]3C)nc12 [Example 20, 8-ethoxy-N-((3R,4S)-3-methyl-1-((1-methyl-1H-pyrazol-4-yl)sulfonyl)piperidin-4-yl)-7-(1H-pyrazol-4-yl)-[1,2,4]triazolo[1,5-a]pyridin-2-amine]	≤ 20 nM
CCCCOc1c(-c2cn[nH]c2)ncc2nc(NC3CCN(S(C)(=O)=O)CC3)nn12 [Example 106, 5-Butoxy-N-(1-(methylsulfonyl)piperidin-4-yl)-6-(1H-pyrazol-4-yl)-[1,2,4]triazolo[1,5-a]pyrazin-2-amine]	≤ 20 nM
CCCOc1c(-c2cn[nH]c2)ncc2nc(NC3CCN(S(C)(=O)=O)CC3)nn12 [Example 105, N-(1-(Methylsulfonyl)piperidin-4-yl)-5-propoxy-6-(1H-pyrazol-4-yl)-[1,2,4]triazolo[1,5-a]pyrazin-2-amine]	≤ 20 nM
CS(=O)(=O)N1CCC(Nc2nc3c(Nc4ccccc4)c(-c4cn[nH]c4)ccn3n2)CC1 [Example 24, N^2-(1-(methylsulfonyl)piperidin-4-yl)-N^8-phenyl-7-(1H-pyrazol-4-yl)-[1,2,4]triazolo[1,5-a]pyridine-2,8-diamine]	≤ 20 nM
CCCOc1c(-c2cn[nH]c2)ccc2nc(N[C@H]3CCN(S(C)(=O)=O)C[C@H]3C)nn12 [Example 71, N-((3R,4S)-3-Methyl-1-(methylsulfonyl)piperidin-4-yl)-5-propoxy-6-(1H-pyrazol-4-yl)-[1,2,4]triazolo[1,5-a]pyridin-2-amine]	≤ 20 nM
CCS(=O)(=O)N1CC[C@H](Nc2nc3ccc(-c4cn[nH]c4)c(OC(C)C)n3n2)[C@H](C)C1 [Example 96, N-((3R,4S)-1-(Ethylsulfonyl)-3-methylpiperidin-4-yl)-5-isopropoxy-6-(1H-pyrazol-4-yl)-[1,2,4]triazolo[1,5-a]pyridin-2-amine]	≤ 20 nM
CCN(C)CCCS(=O)(=O)N1CC[C@H](Nc2nc3c(OC(C)C)c(-c4cn[nH]c4)ncn3n2)[C@H](C)C1 [Example 55, N-((3R,4S)-1-((3-(Ethyl(methyl)amino)propyl)sulfonyl)-3-methylpiperidin-4-yl)-8-isopropoxy-7-(1H-pyrazol-4-yl)-[1,2,4]triazolo[1,5-c]pyrimidin-2-amine]	≤ 20 nM
[2H]C(C)(C)Oc1c(-c2cn[nH]c2)ncc2nc(N[C@H]3CCN(S(C)(=O)=O)C[C@H]3C)nn12 [Example 137, N-((3R,4S)-3-Methyl-1-(methylsulfonyl)piperidin-4-yl)-5-((propan-2-yl-2-d)oxy)-6-(1H-pyrazol-4-yl)-[1,2,4]triazolo[1,5-a]pyrazin-2-amine]	≤ 20 nM
CCCOc1c(-c2cn[nH]c2)ccc2nc(NC3CCN(S(C)(=O)=O)CC3)nn12 [Example 78, N-(1-(Methylsulfonyl)piperidin-4-yl)-5-propoxy-6-(1H-pyrazol-4-yl)-[1,2,4]triazolo[1,5-a]pyridin-2-amine]	≤ 20 nM
COCCN1CCN(c2c(-c3cn[nH]c3)ncn3nc(NC4CCN(S(C)(=O)=O)CC4)nc23)CC1 [Example 51, 8-(4-(2-Methoxyethyl)piperazin-1-yl)-N-(1-(methylsulfonyl)piperidin-4-yl)-7-(1H-pyrazol-4-yl)-[1,2,4]triazolo[1,5-c]pyrimidin-2-amine]	≤ 20 nM
CCS(=O)(=O)N1CC[C@H](Nc2nc3ccc(-c4cn[nH]c4)c(N4CCCCC4)n3n2)[C@H](C)C1 [Example 84, N-((3R,4S)-1-(Ethylsulfonyl)-3-methylpiperidin-4-yl)-5-(piperidin-1-yl)-6-(1H-pyrazol-4-yl)-[1,2,4]triazolo[1,5-a]pyridin-2-amine]	≤ 20 nM
CCOc1c(-c2cn[nH]c2)ccn2nc(N[C@H]3CCN(S(=O)(=O)CCN4CC[C@@H](O)C4)C[C@H]3C)nc12 [Example 19, (R)-1-(2-(((3R,4S)-4-((8-ethoxy-7-(1H-pyrazol-4-yl)-[1,2,4]triazolo[1,5-a]pyridin-2-yl)amino)-3-methylpiperidin-1-yl)sulfonyl)ethyl)pyrrolidin-3-ol]	≤ 20 nM
CCOc1c(-c2cn[nH]c2)ccn2nc(N[C@H]3CCN(S(=O)(=O)CCCN4CCCC4)C[C@H]3C)nc12 [Example 29, 8-ethoxy-N-((3R,4S)-3-methyl-1-((3-(pyrrolidin-1-yl)propyl)sulfonyl)piperidin-4-yl)-7-(1H-pyrazol-4-yl)-[1,2,4]triazolo[1,5-a]pyridin-2-amine]	≤ 20 nM
[2H]C([2H])([2H])C(Oc1c(-c2cn[nH]c2)ncc2nc(N[C@H]3CCN(S(C)(=O)=O)C[C@H]3C)nn12)C([2H])([2H])[2H] [Example 138, N-((3R,4S)-3-Methyl-1-(methylsulfonyl)piperidin-4-yl)-5-((propan-2-yl-1,1,1,3,3,3-d6)oxy)-6-(1H-pyrazol-4-yl)-[1,2,4]triazolo[1,5-a]pyrazin-2-amine]	≤ 20 nM
CS(=O)(=O)N1CCC(Nc2nc3ccc(-c4cn[nH]c4)c(OCC4CC4)n3n2)CC1 [Example 82, 5-(Cyclopropylmethoxy)-N-(1-(methylsulfonyl)piperidin-4-yl)-6-(1H-pyrazol-4-yl)-[1,2,4]triazolo[1,5-a]pyridin-2-amine]	≤ 20 nM
CCOc1c(-c2cn[nH]c2)ccn2nc(N[C@H]3CCN(S(=O)(=O)CCCN4CCCCC4)C[C@H]3C)nc12 [Example 27, 8-ethoxy-N-((3R,4S)-3-methyl-1-((3-(piperidin-1-yl)propyl)sulfonyl)piperidin-4-yl)-7-(1H-pyrazol-4-yl)-[1,2,4]triazolo[1,5-a]pyridin-2-amine]	≤ 20 nM
COCCOc1c(-c2cn[nH]c2)ccn2nc(NC3CCN(S(C)(=O)=O)CC3)nc12 [Example 6, 8-(2-methoxyethoxy)-N-(1-(methylsulfonyl)piperidin-4-yl)-7-(1H-pyrazol-4-yl)-[1,2,4]triazolo[1,5-a]pyridin-2-amine]	≤ 20 nM
CS(=O)(=O)N1CCC(Nc2nc3cnc(-c4cn[nH]c4)c(N4CCCC(C(F)(F)F)C4)n3n2)CC1 (centres unmarked) [Example 136, N-(1-(Methylsulfonyl)piperidin-4-yl)-6-(1H-pyrazol-4-yl)-5-(3-(trifluoromethyl)piperidin-1-yl)-[1,2,4]triazolo[1,5-a]pyrazin-2-amine]	≤ 20 nM
C[C@@H]1CN(S(C)(=O)=O)CC[C@@H]1Nc1nc2c(OC3CCOCC3)c(-c3cn[nH]c3)ccn2n1 [Example 42, N-((3R,4S)-3-methyl-1-(methylsulfonyl)piperidin-4-yl)-7-(1H-pyrazol-4-yl)-8-((tetrahydro-2H-pyran-4-yl)oxy)-[1,2,4]triazolo[1,5-a]pyridin-2-amine]	≤ 20 nM
CCCOc1c(-c2cn[nH]c2)ncn2nc(NC3CCN(S(C)(=O)=O)CC3)nc12 [Example 48, N-(1-(Methylsulfonyl)piperidin-4-yl)-8-propoxy-7-(1H-pyrazol-4-yl)-[1.2.4]triazolo[1,5-c]pyrimidin-2-amine]	≤ 20 nM
CS(=O)(=O)N1CCC(Nc2nc3cnc(-c4cn[nH]c4)cn3n2)CC1 [Example 8, N-(1-(methylsulfonyl)piperidin-4-yl)-6-(1H-pyrazol-4-yl)-[1,2,4]triazolo[1,5-a]pyrazin-2-amine]	≤ 20 nM
CCS(=O)(=O)N1CC[C@H](Nc2nc3cnc(-c4cn[nH]c4)c(OC4CCOCC4)n3n2)[C@H](C)C1 [Example 91, N-((3R,4S)-1-(Ethylsulfonyl)-3-methylpiperidin-4-yl)-6-(1H-pyrazol-4-yl)-5-((tetrahydro-2H-pyran-4-yl)oxy)-[1,2,4]triazolo[1,5-a]pyrazin-2-amine]	≤ 20 nM
CCS(=O)(=O)N1CC[C@H](Nc2nc3cnc(-c4cn[nH]c4)c(OC4CCC4)n3n2)[C@H](C)C1 [Example 93, 5-Cyclobutoxy-N-((3R,4S)-1-(ethylsulfonyl)-3-methylpiperidin-4-yl)-6-(1H-pyrazol-4-yl)-[1,2,4]triazolo[1,5-a]pyrazin-2-amine]	≤ 20 nM
